Source: patent US10624852B2, “Liposomes comprising a calcium phosphate-containing precipitate” (The University of North Carolina at Chapel Hill, priority 2009, dated 2020)
Non-standard residues stand in square brackets, D forms with d. No end group written: not given here. pY = N[C@@H](Cc1ccc(OP(=O)(O)O)cc1)C(=O)O

Columns and labels:
[1] = Trapping / encapsulation efficiency; format: physicochemical; settings: cargo encapsulated in LCP-II
Experimental: To […] calculate the trapping efficiency of siRNA in the LCP nanoparticles, the anti-luciferase siRNA was replaced with a carboxyfluoroscein (FAM)-labeled siRNA having the same sequence (Dharmacon Inc, Lafayette, Colo.). The FAM-labeled siRNA LCP nano-particles were dissolved in lysis buffer (2 mM EDTA and 0.05% Trixton-100 in pH 7.8 Tris buffer) for quantitative analysis of the siRNA encapsulation efficiency. Standard siRNA solutions were prepared by diluting the FAM-labeled siRNA in the same lysis buffer. Then, 100 μl of the standard siRNA solution or the LCP solution was added to a 96-well plate and the fluorescence intensity was measured at 525 nm with a plate reader (Plate Chameleon Multilabel Detection Platform, Bioscan Inc., Washington D.C.). The amount of entrapped siRNA in the LCP nanoparticles was calculated based on the standard calibration curve.

H-460 cells = assay: Calcium release in live cells (Fura-2 imaging); format: cell-based, human; settings: 20 μM cytochalasin D, cells with LCP nanoparticles
Experimental: Two μl of 2 mM Fura-2 AM and 2 μl of 20% Pluronic-127 were mixed for 5 min and added to 1 ml phenol red free DMEM cell culture medium before use. About 5×10^4 H-460 cells were incubated in a Lab-Tek 8-well glass chamber slide system (Fisher, Pittsburgh, Pa.) for 24 h. Two hundred μl of a 2 μM Fura-2 AM solution was added to the cell culture chamber, followed by a 50 min incubation. After washing two times with PBS, the cells were incubated in phenol red-free DMEM cell culture medium and imaged with a Nikon TE2000U microscope and OrcaER camera. Emission was monitored at 510 nm with an alternating excitation wavelength of 340 nm and 380 nm from a Xenon light source. After adding 50 μl of LCP nanoparticles, fluorescence image was obtained by setting the excitation wavelength at 340 nm for green color and 380 nm for red color. The ratio of 340 nm/380 nm was proportional to the intracellular free Ca^2+ concentration (Hirst et al. (1999) Methods Mol Biol 114:31-39). All experiments were performed at room temperature.
To study the inhibition of endocytosis, 20 mM cytochalasin D was prepared in DMSO solution and freshly diluted 1,000 times by phenol red-free DMEM medium for use. After incubating with Fura-2 AM for 60 min and 20 μM cytochalasin D for 5 min, cells were imaged as described in the presence of LCP nanoparticles.

Compound | trapping efficiency in LCP-II nanoparticles [1] | effect on LCP-induced color change (endocytosis inhibition) (H-460 cells)
O=C([O-])c1ccccc1-c1c2ccc(=O)cc-2oc2cc([O-])ccc12.[Na+].[Na+] [sodium fluorescein, reference compound] | about 40% | 
EEEEpYFELV (EEEE[pY]FELV) [peptide wherein the tyrosine (Y) is phosphorylated] | ~82% | 
C=C1[C@@H](C)[C@H]2[C@H](Cc3ccccc3)NC(=O)[C@]23[C@H](OC(C)=O)/C=C/[C@@](C)(O)C(=O)[C@@H](C)C/C=C/[C@H]3[C@@H]1O [cytochalasin D] |  | significantly reduced the color change

The next lines start with results.

trapping efficiency in LCP-II nanoparticles [1] | Compound | effect on LCP-induced color change (endocytosis inhibition) (H-460 cells)
~88% | Nc1ccn(C2OC(COP(=O)(O)O)[C@H](O)C2(F)F)c(=O)n1 (some centres unmarked) [gemcitabine monophosphate, Gemcitabine monophosphate] | 
about 94% | Nc1ccn([C@@H]2O[C@H](COP(=O)(O)O)[C@@H](O)[C@@H]2O)c(=O)n1 [AraC monophosphate] | 
